Measured values taken from PMC8472965, “BmK86-P1, a New Degradation Peptide with Desirable Thermostability and Kv1.2 Channel-Specific Activity from Traditional Chinese Scorpion Medicinal Material” (Toxins, 2021).
Positions of bridges follow the written chain, without caps; N, C: chain ends. Residues, ends and D or L forms follow the SMILES beside them.

Key:
hKv1.1 channel = target: T1, hKv1.1 channel (Homo sapiens, UniProt Q09470); experiment: Whole-cell patch clamp, hKv1.1 channel overexpressed in HEK293T cells; type: cell-based; conditions: mean ± S.E., n ≥ 3, SEM
T1 construct: expressed in transfected cells; host or cells: HEK293T
Experimental: (§1) To investigate the electrophysiological activities of BmK86-P1, the whole-cell patch clamp technique was applied to test the effects of BmK86-P1 on multiple potassium channels. The hKv1.1, hKv1.2, hKv1.3, hKv1.6, hKv3.2, mKv4.1, rKv4.2, rKv4.3 and hERG channels were overexpressed in HEK293T cells, then the inhibitory effects of BmK86-P1 at 1 μM on these potassium channels were measured. […] To further investigate the affinity of BmK86-P1 inhibiting the hKv1.2 channel, a dose-dependent study was performed by examining the inhibitory effects of different concentrations of BmK86-P1.
(§2) All potassium channel expression vectors were given by others or constructed by ourselves. HEK293T cells were cultured in Dulbecco’s modified Eagle medium (Gibco, Pittsburgh, PA, USA) with 10% fetal bovine serum and penicillin/streptomycin (100 units/mL) in a 5% CO2 incubator at 37 °C. […] The potassium currents were recorded after transfection for 1 to 3 days.
(§3) The channel currents were measured and recorded by whole-cell patch clamp technology according to previously published references. […] The channel currents were recorded at room temperature (~25 °C) using an EPC 10 patch clamp amplifier. […]
(§4) The ClampFit (Molecular Devices, Sunnyvale, CA, USA) and SigmaPlot software ([…], Chicago, IL, USA) were used to analyze the recorded data. […]

rKv4.3 channel = experiment: Whole-cell patch clamp, rKv4.3 channel overexpressed in HEK293T cells; type: cell-based, rat; conditions: 1 μM peptide, mean ± S.E., n ≥ 3, SEM
Experimental: as §1, §2, §3, §4

rKv4.2 channel = target: T2, rKv4.2 channel (Rattus norvegicus, UniProt Q63881); experiment: Whole-cell patch clamp, rKv4.2 channel overexpressed in HEK293T cells; type: cell-based; conditions: 1 μM peptide, mean ± S.E., n ≥ 3, SEM
T2 construct: expressed in transfected cells; host or cells: HEK293T
T2 sequence (Q63881 1-630): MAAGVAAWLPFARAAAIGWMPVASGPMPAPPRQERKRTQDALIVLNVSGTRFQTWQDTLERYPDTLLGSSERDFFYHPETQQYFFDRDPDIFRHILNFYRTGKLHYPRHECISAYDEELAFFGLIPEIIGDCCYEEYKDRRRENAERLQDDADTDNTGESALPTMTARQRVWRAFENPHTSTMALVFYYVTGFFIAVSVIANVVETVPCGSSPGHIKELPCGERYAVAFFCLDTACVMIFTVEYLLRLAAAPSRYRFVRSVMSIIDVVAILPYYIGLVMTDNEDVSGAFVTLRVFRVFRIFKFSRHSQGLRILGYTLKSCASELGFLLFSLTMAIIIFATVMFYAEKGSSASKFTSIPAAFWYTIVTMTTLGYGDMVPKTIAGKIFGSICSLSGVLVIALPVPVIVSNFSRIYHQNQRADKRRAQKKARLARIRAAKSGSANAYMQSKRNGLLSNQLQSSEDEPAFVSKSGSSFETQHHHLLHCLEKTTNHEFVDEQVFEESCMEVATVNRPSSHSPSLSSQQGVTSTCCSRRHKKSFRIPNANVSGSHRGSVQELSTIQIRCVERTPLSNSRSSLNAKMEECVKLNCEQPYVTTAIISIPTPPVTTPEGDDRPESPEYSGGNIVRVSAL
Experimental: as §1, §2, §3, §4

hKv1.3 channel = target: T3, hKv1.3 channel (Homo sapiens, UniProt P22001); experiment: Whole-cell patch clamp, hKv1.3 channel overexpressed in HEK293T cells; type: cell-based; conditions: 1 μM peptide, room temperature (~25 °C), mean ± S.E., n ≥ 3, SEM
T3 construct: expressed in transfected cells; host or cells: HEK293T
Experimental: as §1, §2, §3, §4

hKv1.2-V381Y = target: T4, hKv1.2-V381Y (Homo sapiens, UniProt P16389, V381Y); experiment: Whole-cell patch clamp, hKv1.2 channel mutant V381Y; type: cell-based; conditions: 100 nM peptide, HEK293T, mean ± S.E., n ≥ 3, SEM
T4 construct: expressed in transfected cells; host or cells: HEK293T
Experimental: (§5) To determine the functional sites of the hKv1.2 channel responsible for the selectivity of BmK86-P1, six hKv1.2 mutants were obtained based on sequence differences between the pore regions of the hKv1.2 and hKv1.1 channels (Figure 4A). Then, the activities of 100 nM BmK86-P1 on these six mutant channels were tested. […] The other three mutant channels (hKv1.2-D352E, hKv1.2-R354A and hKv1.2-P359S) still kept similar sensitivities toward BmK86-P1 compared with the wild-type hKv1.2 channel (Figure 4H,I,K,N).
(§6) All potassium channel expression vectors were given by others or constructed by ourselves. HEK293T cells were cultured in Dulbecco’s modified Eagle medium (Gibco, Pittsburgh, PA, USA) with 10% fetal bovine serum and penicillin/streptomycin (100 units/mL) in a 5% CO2 incubator at 37 °C. Potassium channel expression vectors and pEGFP-N1 were co-transfected into HEK293T cells using TurboFect in vitro Transfection Reagent (Thermo Scientific, Waltham, MA, USA) according to the manufacturer’s instructions. The potassium currents were recorded after transfection for 1 to 3 days.
as §3

hKv1.2-Q357H = target: T5, hKv1.2-Q357H (Homo sapiens, UniProt P16389, Q357H); experiment: Whole-cell patch clamp, hKv1.2 channel mutant Q357H; type: cell-based; conditions: 100 nM peptide, HEK293T, mean ± S.E., n ≥ 3, SEM
T5 construct: expressed in transfected cells; host or cells: HEK293T
Experimental: as §5, §6, §3

T1 sequence (Q09470 whole entry): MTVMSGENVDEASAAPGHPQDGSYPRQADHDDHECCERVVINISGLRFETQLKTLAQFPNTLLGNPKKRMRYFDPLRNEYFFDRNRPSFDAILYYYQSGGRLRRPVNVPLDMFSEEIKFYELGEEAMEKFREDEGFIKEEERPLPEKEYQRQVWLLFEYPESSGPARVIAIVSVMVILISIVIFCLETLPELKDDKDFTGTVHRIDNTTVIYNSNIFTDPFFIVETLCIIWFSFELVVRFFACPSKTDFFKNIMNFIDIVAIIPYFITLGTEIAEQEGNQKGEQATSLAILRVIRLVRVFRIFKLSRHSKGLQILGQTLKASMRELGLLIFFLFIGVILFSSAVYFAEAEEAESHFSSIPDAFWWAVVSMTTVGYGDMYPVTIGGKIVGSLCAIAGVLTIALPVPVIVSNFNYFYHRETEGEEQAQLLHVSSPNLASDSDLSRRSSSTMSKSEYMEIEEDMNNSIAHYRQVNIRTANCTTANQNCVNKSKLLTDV
T4 sequence (P16389 whole entry V381Y): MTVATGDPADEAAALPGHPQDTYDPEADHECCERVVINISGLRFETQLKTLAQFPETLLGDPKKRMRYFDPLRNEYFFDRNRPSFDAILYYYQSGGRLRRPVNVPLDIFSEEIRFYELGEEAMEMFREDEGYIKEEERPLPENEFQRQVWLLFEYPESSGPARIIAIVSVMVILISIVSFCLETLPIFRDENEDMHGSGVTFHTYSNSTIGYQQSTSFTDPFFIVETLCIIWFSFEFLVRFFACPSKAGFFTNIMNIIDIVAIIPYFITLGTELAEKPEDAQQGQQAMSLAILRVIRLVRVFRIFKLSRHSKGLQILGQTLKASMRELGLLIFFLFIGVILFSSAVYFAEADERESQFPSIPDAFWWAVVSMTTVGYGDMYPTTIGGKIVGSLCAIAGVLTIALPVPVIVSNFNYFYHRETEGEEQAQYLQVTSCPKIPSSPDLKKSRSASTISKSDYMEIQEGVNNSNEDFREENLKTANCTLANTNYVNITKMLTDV
T3 sequence (P22001 whole entry): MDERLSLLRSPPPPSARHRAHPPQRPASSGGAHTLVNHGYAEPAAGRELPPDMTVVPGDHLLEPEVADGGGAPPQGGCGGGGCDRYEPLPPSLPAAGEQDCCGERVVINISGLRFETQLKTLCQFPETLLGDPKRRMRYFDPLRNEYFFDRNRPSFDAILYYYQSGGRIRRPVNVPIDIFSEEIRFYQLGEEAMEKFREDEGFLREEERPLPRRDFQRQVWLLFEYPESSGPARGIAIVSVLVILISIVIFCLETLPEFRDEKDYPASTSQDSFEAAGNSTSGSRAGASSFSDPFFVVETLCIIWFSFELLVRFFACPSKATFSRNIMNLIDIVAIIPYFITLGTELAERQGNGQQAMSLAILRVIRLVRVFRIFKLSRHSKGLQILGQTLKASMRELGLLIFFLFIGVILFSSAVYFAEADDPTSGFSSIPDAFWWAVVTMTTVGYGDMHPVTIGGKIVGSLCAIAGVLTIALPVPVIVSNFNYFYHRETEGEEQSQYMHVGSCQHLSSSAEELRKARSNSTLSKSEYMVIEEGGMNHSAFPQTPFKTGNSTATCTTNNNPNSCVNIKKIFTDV
T5 sequence (P16389 whole entry Q357H): as the sequence (P16389 whole entry V381Y) above, with Q357H, Y381V counted along it

CC[C@H](C)[C@@H]1NC(=O)[C@@H]2CSSC[C@H](NC(=O)[C@H](C)N)C(=O)N[C@@H](CO)C(=O)N[C@@H](CCCCN)C(=O)N3CCC[C@H]3C(=O)N[C@H]3CSSC[C@H](NC(=O)[C@H](CCCNC(=N)N)NC(=O)CNC(=O)[C@H](CC(N)=O)NC1=O)C(=O)N[C@@H](Cc1c[nH]cn1)C(=O)N[C@H](C(=O)N[C@@H](Cc1ccc(O)cc1)C(=O)N[C@@H](Cc1ccc(O)cc1)C(=O)O)CSSC[C@H](NC(=O)[C@H](Cc1ccc(O)cc1)NC(=O)[C@H](CCCCN)NC(=O)[C@H](CCCNC(=N)N)NC3=O)C(=O)N[C@@H]([C@@H](C)CC)C(=O)N[C@@H](CC(=O)O)C(=O)N[C@@H](CCCCN)C(=O)NCC(=O)N[C@@H](C)C(=O)N[C@@H](CCCNC(=N)N)C(=O)N[C@@H](CC(N)=O)C(=O)NCC(=O)N[C@@H](CCCCN)C(=O)N2 [BmK86-P1] (H-ACSKPCRKYCIDKGARNGKCINGRCHCYY-OH; disulfide 2-20, 6-25, 10-27 (inferred); N-terminus and C-terminus assumed)
inhibition of hKv1.1 channel currents (hKv1.1 channel; 100 nM peptide): 0.7 ± 0.1%
inhibition of hKv1.1 channel currents (hKv1.1 channel; 1 μM peptide, room temperature (~25 °C)): 4.4 ± 2.6%
inhibition of Kv4.3 channel currents (rKv4.3 channel): 4.9 ± 0.3%
inhibition of rKv4.2 channel currents (rKv4.2 channel): 11.0 ± 1.8%
inhibition of hKv1.3 channel currents (hKv1.3 channel): 52.1 ± 3.1%
inhibition of hKv1.2-V381Y channel currents (hKv1.2-V381Y): 1.6 ± 0.1%
inhibition of hKv1.2-Q357H channel currents (hKv1.2-Q357H): 37.3 ± 1.5%
